Key:
[1] = test system: fibrosis-related gene expression in explanted human lung tissue from patients with idiopathic pulmonary fibrosis; test: nCounter Fibrosis Panel gene expression in precision cut lung slices from IPF explants; assay type: cell-based; details: IPF PCLS, 7 days, vs DMSO
Source text: Fibrosis-related gene expression in explanted human lung tissue from patients with idiopathic pulmonary fibrosis was examined in order to determine what impact combining Compound 5 treatment with standard-of-care drugs nintedanib or pirfenidone, has on the expression of such genes.
Samples used for this analysis are a subset (n = 4 of 7) of the lungs previously reported on in Decaris et al., Respir Res (2021) 22:265 (FIGS. 6 A and B). Briefly, tissue samples from patients with IPF were acquired at the time of lung transplantation. Precision cut lung slices were generated from the explants and cultured for 7 days in the presence of inhibitors (Compound 5, nintedanib, pirfenidone) at clinically relevant concentrations or vehicle (DMSO). Treated slices were lysed in mRNA-compatible buffer for gene expression analysis. For this study, the lysate from n = 6 slices per treatment per lung were pooled for analysis using the nCounter Fibrosis Panel (Nanostring) on the nCounter Max analyzer (Nanostring). This commercially available panel of 770 genes includes genes related to initial tissue damage response, chronic inflammation, proliferation of pro-fibrotic cells, and tissue modification leading to fibrotic disease. Technical quality control and normalization of raw Nanostring mRNA count data was performed using an R framework developed by Bhattacharya et al. (Bhattacharya A. et al., Brief Bioinform. 2021 May 20;22(3):bbaa163). The R packages limma (see URL www.bioconductor.org/packages/release/bioc/html/limma.html) and voom (Law, C.W. et al., Genome Biol. 2014 Feb 3;15(2):R29) were used to detect differentially expressed genes. Benjamini-Hochberg False Discovery Rate (FDR = 5%) was used to adjust p-values for multiple comparisons.

COL1A1 expression = test: PCLS from human IPF lung tissue, 7 days: COL1A1 expression; assay type: cell-based; details: Compound 5 200 nM, nintedanib 75 nM, pirfenidone 50 µM, 5-7 IPF lungs
Method: PCLS from 5-7 idopathic pulmonary fibrosis (IPF) lung tissue samples were cultured for seven days with one of: DMSO; Compound 5 at 200 nM; nintedanib at 75 nM; pirfenidone at 50 µm; a combination of Compound 5 at 200 nM and nintedanib at 75 nM; a combination of Compound 5 at 200 nM and pirfenidone at 50 µm; or an Alk5 inhibitor at 1 µm. […] FIG. 6D is a bar graph showing relative expression of COL1A1 in precision cut lung slices (PCLS) from idopathic pulmonary fibrosis (IPF) lung tissue upon exposure to Comopund 5, clinical standard of care compounds nintedanib (Nin) and pirfenidone (Pirf), and an ALK5 inhibitor, all versus DMSO control.
PCLS from a single IPF lung tissue sample were cultured for seven days with Compound 5 at concentrations of 200 pM, 2 nM, 60 nM, 200 nM, and 1 µM, along with 0.1% DMSO control and an Alk5 inhibitor at 1 µM. […] COL1A1 expression is also graphed for the PCLS in the presence of 0.1% DMSO control, and an Alk5 inhibitor at 1 µM.

[2] = test system: Type I Collagen gene Col1a1 expression; test: Precision cut lung slices of mice under acute bleomycin exposure; assay type: cell-based, mouse; details: acute bleomycin injured lung slices
Method: Mice (C57BL/6) were administered 3 U/kg of bleomycin (Teva Pharmaceuticals; North Wales, PA) on day 0 via oropharyngeal aspiration while under anesthesia. On day 14, precision cut lung slices were obtained. Following euthanization, 2% low gelling temp agarose was injected into the mouse lungs via the trachea. […] The lobes were then subjected to precision slicing to obtain samples for culture using a microtome (Compresstome VF-300-0Z, Precisionary; Greenville, NC). Individual slices were distributed in a multiwell culture plate and cultured for 3 days under control (DMSO) and test compound conditions.

lung Col1a1 expression = test: Precision cut lung slices of mice under chronic bleomycin exposure (vs pirfenidone and nintedanib); assay type: cell-based, mouse; details: slices cultured 7 days; nintedanib and pirfenidone at 10x therapeutic concentrations
Method: Mice (C57BL/6) were administered 3 U/kg of bleomycin (Teva Pharmaceuticals; North Wales, PA) on Day 0 and 1 U/kg of bleomycin on days 14, 28, 42 and 56 via oropharyngeal aspiration while under anesthesia. At day 70, 14 days following the final bleomycin insult, precision cut lung slices were obtained. Following euthanization, 2% low gelling temp agarose was injected into the mouse lungs via the trachea. […] The lobes were then subjected to precision slicing to obtain samples for culture using a microtome (Compresstome VF-300-0Z, Precisionary; Greenville, NC). Individual slices were distributed in a multiwell culture plate and cultured for 7 days under control (DMSO) and test compound conditions. The viability of the slices over the course of culturing was confirmed by WST-1 assay of mitochondrial activity.
During the culture period, slices in the control group were treated with DMSO and slices in the test group were treated with a DMSO solution of one of: compound 5; nintedanib; pirfenidone; a combination of nintedanib and compound 5; a combination of pirfenidone and compound 5; or the small molecule ALK5 inhibitor. Compound 5 was […] effective to equal or exceed its respective IC50 values at αvβ6 and αvβ1. The small molecule ALK5 inhibitor was analyzed at 10x its reported IC50 value. Nintendanib and pirfenidone were analyzed at concentrations 10x their reported therapeutic concentrations.

Cc1ccc(=O)n(-c2ccccc2)c1 [pirfenidone, 5-methyl-1phenyl-2-1(H)-pyridone]
% Reduction of CDH2 expression [1]: -7.12% | % Reduction of COL1A1 expression [1]: 8.58% | % Reduction of COL5A3 expression [1]: 23.95% | % Reduction of ITGAS expression [1]: 26.21% | % Reduction of THBS2 expression [1]: 21.20% | logFC of ACACA expression [1]: 0.4392 | logFC of ACVRL1 expression [1]: -0.7278 | logFC of ALDH7A1 expression [1]: 0.6119 | logFC of C6 expression [1]: 1.475 | logFC of CD34 expression [1]: -0.8356 | logFC of CDH5 expression [1]: -1.0568 | logFC of CFTR expression [1]: 1.189 | logFC of COL4A1 expression [1]: -0.7024 | logFC of COL7A1 expression [1]: 0.6703 | logFC of COL14A1 expression [1]: -0.7785 | logFC of COX4I2 expression [1]: -0.7471 | logFC of CXCL2 expression [1]: 0.778 | logFC of CXCL12 expression [1]: -0.5918 | logFC of CXCR4 expression [1]: -0.8852 | logFC of EGFR expression [1]: 0.4764 | logFC of F11R expression [1]: 0.5803 | logFC of FGF19 expression [1]: -1.14 | logFC of GAS1 expression [1]: -0.6419 | logFC of GPC4 expression [1]: 0.4613 | logFC of GREM1 expression [1]: -0.7447 | logFC of HADH expression [1]: 0.4377 | logFC of HAVCR1 expression [1]: -0.7313 | logFC of ICAM1 expression [1]: 0.4322 | logFC of IFNG expression [1]: -0.5853 | logFC of KLF5 expression [1]: 0.7343 | logFC of KNG1 expression [1]: -1.1 | logFC of LYN expression [1]: 0.4785 | logFC of MET expression [1]: 1.096 | logFC of MMP7 expression [1]: 1.413 | logFC of MMRN1 expression [1]: -0.9784 | logFC of NOTCH4 expression [1]: -0.7164 | logFC of OCLN expression [1]: 0.5956 | logFC of PDGFRB expression [1]: -0.7514 | logFC of PECAM1 expression [1]: -0.9354 | logFC of PSENEN expression [1]: 0.4784 | logFC of PTGS2 expression [1]: 0.9466 | logFC of RELN expression [1]: -0.8283 | logFC of SAA1 expression [1]: 1.653 | logFC of TEK expression [1]: -0.8124 | logFC of WWC1 expression [1]: 0.8127 | reduction of COL1A1 expression (COL1A1 expression): did not significantly reduce | fold increase in concentration over compound 5 needed to reduce lung slice Col1a1 expression by 50% [2]: 3,940 fold | lung Col1a1 expression vs DMSO control (lung Col1a1 expression): slight increase

COC(=O)c1ccc2c(c1)NC(=O)/C2=C(\Nc1ccc(N(C)C(=O)CN2CCN(C)CC2)cc1)c1ccccc1 [nintedanib, 3-Z-[1-(4-(N-((4-methyl-piperazin-1-yl)-methylcarbonyl)-N-methyl-amino)-anilino)-1-phenyl-methylene]-6-methoxycarbonyl-2-indolinone]
% Reduction of APOC2 expression [1]: 16.88% | % Reduction of CDH2 expression [1]: -9.99% | % Reduction of COL1A1 expression [1]: 27.60% | % Reduction of COL4A2 expression [1]: 31.55% | % Reduction of FAP expression [1]: 35.72% | % Reduction of FCGR3A/B expression [1]: 33.44% | % Reduction of ITGB3 expression [1]: 16.60% | % Reduction of LOX expression [1]: 40.76% | % Reduction of LOXL2 expression [1]: 15.99% | % Reduction of NID1 expression [1]: 26.59% | % Reduction of PDGFRB expression [1]: 42.09% | % Reduction of POSTN expression [1]: 38.94% | % Reduction of SERPINE1 expression [1]: 9.75% | % Reduction of SERPINH1 expression [1]: 15.02% | % Reduction of SPP1 expression [1]: 59.73% | % Reduction of TGFB1 expression [1]: 21.04% | % Reduction of THBS2 expression [1]: 25.58% | logFC of ACTA2 expression [1]: 0.6841 | logFC of ACVRL1 expression [1]: -1.329 | logFC of ADH1B expression [1]: 0.8975 | logFC of ADH1C expression [1]: 0.9337 | logFC of ALDH7A1 expression [1]: 0.7402 | logFC of AMOTL2 expression [1]: 0.5767 | logFC of CCL19 expression [1]: 0.789 | logFC of CD34 expression [1]: -1.516 | logFC of CDH5 expression [1]: -2.328 | logFC of CETP expression [1]: -1.732 | logFC of CFTR expression [1]: 0.8907 | logFC of COL6A5 expression [1]: 0.6309 | logFC of COL10A1 expression [1]: -1.169 | logFC of COX4I2 expression [1]: -2.07 | logFC of CXCL10 expression [1]: -1.71 | logFC of CXCR4 expression [1]: -1.727 | logFC of CYP2J2 expression [1]: 1.025 | logFC of DLL4 expression [1]: -2.786 | logFC of ELN expression [1]: 0.8689 | logFC of FLT1 expression [1]: -3.369 | logFC of FLT4 expression [1]: -1.476 | logFC of FST expression [1]: 1.092 | logFC of GPX2 expression [1]: 1.178 | logFC of IGF1 expression [1]: 0.632 | logFC of KLF5 expression [1]: 0.8124 | logFC of LAMA3 expression [1]: 0.6871 | logFC of MASP1 expression [1]: 0.8164 | logFC of MET expression [1]: 0.7131 | logFC of MMP8 expression [1]: -1.053 | logFC of MMP9 expression [1]: -1.1396 | logFC of MMP11 expression [1]: -1.002 | logFC of MMP12 expression [1]: -1.411 | logFC of NOS3 expression [1]: -1.356 | logFC of NOTCH4 expression [1]: -1.605 | logFC of OCLN expression [1]: 0.6026 | logFC of PECAM1 expression [1]: -1.967 | logFC of PYGM expression [1]: 0.6237 | logFC of TEK expression [1]: -1.206 | logFC of TPSAB1/B2 expression [1]: -1.195 | logFC of WWC1 expression [1]: 0.7518 | reduction of COL1A1 expression (COL1A1 expression): did not significantly reduce | fold increase in concentration over compound 5 needed to reduce lung slice Col1a1 expression by 50% [2]: 5.2 fold | lung Col1a1 expression vs DMSO control (lung Col1a1 expression): slight increase

Source: patent publication US20230293519A1, “INTEGRIN INHIBITORS AND USES THEREOF IN COMBINATION WITH OTHER AGENTS” (Pliant Therapeutics, Inc., priority 2021, published 2023)
